Results published in PMC8597734 (Antimicrobial Agents and Chemotherapy, 2021).
Values after ≈ are worked out from the molar mass of the structure shown. Where two headings read alike, the source gives them in different places.

Tests used:
[1] = tested on: M. abscessus ATCC 19977 MXF_R3 (GyrA D96G); assay: microbe, parasite or virus in culture; type: cell-based, Mycobacterium abscessus
[2] = tested on: M. abscessus subsp. abscessus M9; assay: microbe, parasite or virus in culture; type: cell-based, Mycobacterium abscessus; settings: Mycobacteroides abscessus, 72 h
M. abscessus Bamboo [3] = assay: MIC and MBC determination in culture tubes (planktonic); type: cell-based, Mycobacterium abscessus; settings: for MBC: 10-fold reduction in CFU/ml vs day 0; for MIC: 48 h, day 2
M. avium 11 = assay: microbe, parasite or virus in culture; type: cell-based; settings: Mycobacterium avium, 11, 96 h
[4] = tested on: M. abscessus subsp. abscessus ATCC 19977; assay: microbe, parasite or virus in culture; type: cell-based, Mycobacterium abscessus; settings: Mycobacteroides abscessus
[5] = tested on: M. abscessus subsp. bolletii M232; assay: microbe, parasite or virus in culture; type: cell-based, Mycobacterium abscessus; settings: Mycobacteroides abscessus, 72 h
[6] = tested on: M. abscessus subsp. abscessus M199; assay: microbe, parasite or virus in culture; type: cell-based, Mycobacterium abscessus; settings: Mycobacteroides abscessus, 72 h
[7] = tested on: M. abscessus subsp. abscessus K21; assay: microbe, parasite or virus in culture; type: cell-based, Mycobacterium abscessus; settings: Mycobacteroides abscessus, 72 h
[8] = tested on: M. abscessus subsp. massiliense M111; assay: microbe, parasite or virus in culture; type: cell-based, Mycobacterium abscessus; settings: Mycobacteroides abscessus, 72 h
[9] = tested on: M. abscessus subsp. abscessus M337; assay: microbe, parasite or virus in culture; type: cell-based, Mycobacterium abscessus; settings: Mycobacteroides abscessus, 72 h
[10] = tested on: M. abscessus Bamboo RM1 (GyrA M129K); assay: microbe, parasite or virus in culture; type: cell-based, Mycobacterium abscessus; settings: Mycobacteroides abscessus
[11] = tested on: M. abscessus ATCC 19977 MXF_R1 (GyrA D96Y); assay: microbe, parasite or virus in culture; type: cell-based, Mycobacterium abscessus
[12] = tested on: M. abscessus Bamboo RM4 (GyrA D91G); assay: microbe, parasite or virus in culture; type: cell-based, Mycobacterium abscessus; settings: Mycobacteroides abscessus
[13] = tested on: M. tuberculosis H37Rv ATCC 27294; assay: microbe, parasite or virus in culture; type: cell-based; settings: Mycobacterium tuberculosis, 168 h
[14] = tested on: M. abscessus subsp. bolletii M506; assay: microbe, parasite or virus in culture; type: cell-based, Mycobacterium abscessus; settings: Mycobacteroides abscessus, 72 h
[15] = tested on: M. abscessus subsp. massiliense CCUG 48898T; assay: microbe, parasite or virus in culture; type: cell-based, Mycobacterium abscessus; settings: Mycobacteroides abscessus, 72 h
[16] = tested on: M. abscessus subsp. abscessus M404; assay: microbe, parasite or virus in culture; type: cell-based, Mycobacterium abscessus; settings: Mycobacteroides abscessus, 72 h
[17] = tested on: M. abscessus ATCC 19977 MXF_R2 (GyrA D96N); assay: microbe, parasite or virus in culture; type: cell-based, Mycobacterium abscessus
M. abscessus Bamboo [18] = assay: microbe, parasite or virus in culture; type: cell-based, Mycobacterium abscessus; settings: Mycobacteroides abscessus
[19] = tested on: M. abscessus subsp. abscessus M422; assay: microbe, parasite or virus in culture; type: cell-based, Mycobacterium abscessus; settings: Mycobacteroides abscessus, 72 h
[20] = tested on: M. abscessus Bamboo RM2 (GyrA D91N); assay: microbe, parasite or virus in culture; type: cell-based, Mycobacterium abscessus; settings: Mycobacteroides abscessus
[21] = tested on: M. intracellulare ATCC 13950; assay: microbe, parasite or virus in culture; type: cell-based; settings: Mycobacterium intracellulare, ATCC13950, 96 h
[22] = tested on: M. abscessus subsp. bolletii CCUG 50184T; assay: microbe, parasite or virus in culture; type: cell-based, Mycobacterium abscessus; settings: Mycobacteroides abscessus, 72 h
[23] = tested on: M. abscessus Bamboo RM3 (GyrA D91N); assay: microbe, parasite or virus in culture; type: cell-based, Mycobacterium abscessus; settings: Mycobacteroides abscessus
[24] = tested on: M. abscessus Bamboo biofilms; assay: Biofilm growth inhibition assay (biofilm MIC and MBC); type: cell-based, Mycobacterium abscessus; settings: Mycobacteroides abscessus, Biofilm, M. abscessus Bamboo; for MBC: 10-fold reduction of CFU/peg vs 24 h; for MIC: 90% reduction of CFU/peg relative to drug-free biofilm growth, 48 h
Protocol: The biofilm growth inhibition assay was performed as previously described ([52]). Innovotech MBEC 96-well Biofilm Assay Plates (Innovotech 19111, Edmonton, AB, Alberta, Canada) were used, and the supplier’s manual was followed with minor modifications. Midlog phase M. abscessus Bamboo precultures (OD600 = 0.4–0.6) were spun down at 3,200 × g for 10 min at 25°C and washed with 7H9 medium without Tween 80 (7H9nt). Bacteria were resuspended into 25 ml 7H9nt to an OD600 = 0.0125 (1.0 × 10^6 CFU/ml). 150 μl of bacteria suspension was dispensed into each well of MBEC multititer plates and the polystyrene protrusions (pegs) of the MBEC lid were inserted into the culture-containing wells for 24 h at 37°C on an orbital shaker at 110 rpm to allow attachment of the bacteria to the pegs and initiation of biofilm growth. The lids with the pegs (now with 1-day-old biofilms) were transferred to new MBEC multititer plates containing 150 μl of fresh 7H9nt medium per well without bacteria (0 h time point). After that, the lids with biofilm-laden pegs were transferred once a day to a new multititer plate containing fresh 7H9nt medium. To measure growth of the biofilm formed on the peg, the pegs were washed in 200 μl of 7H9nt medium before they were aseptically removed and placed in 1.7 ml microcentrifuge tubes (VWR 87003-294, Rador, PA, United States) containing 500 μl PBS/Tween 80. The microcentrifuge tubes were vigorously vortexed at 2,000 rpm for 90 s at 25°C to detach the bacteria from the pegs before samples were serially diluted and plated for the determination of CFU/peg. […] The average drug-free biofilm growth was calculated by subtracting the average 24 h CFU/peg value from the average 72 h CFU/peg value for the untreated control pegs. The biofilm MIC was defined as the lowest drug concentration that reduced the CFU/peg by 90% relative to the average drug-free biofilm growth.

[25] = tested on: M. abscessus subsp. abscessus K21; assay: M. abscessus mouse infection model; type: in vivo, Mycobacterium abscessus; settings: NOD SCID mice, intranasal infection
Protocol: In vivo efficacy determinations were carried out as described previously, using 8-week-old female NOD.CB17-Prkdc^scid/NCrCrl (NOD SCID) mice (Charles River Laboratories) and the M. abscessus subsp. abscessus K21 strain ([48]). Briefly, anesthetized animals were infected by intranasal delivery of ∼10^6 CFU of M. abscessus subsp. abscessus K21. Acute infection was achieved within 1 day. Drugs or the vehicle control was administered to NOD SCID mice once daily for 10 consecutive days by oral gavage, starting from 1 day postinfection. Clarithromycin was formulated in 0.4% methyl cellulose–sterile water and administered at a dose of 250 mg/kg. […] EC/11716 was formulated in 0.4% methyl cellulose–sterile water and administered at 400 mg/kg. All mice were euthanized 24 h after the last dose (11 days postinfection), and their lungs and spleen were aseptically removed prior to homogenization. The bacterial load in these organs was determined by plating serial dilutions of the organ homogenates onto Middlebrook 7H11 agar (BD Difco) supplemented with 0.2% (vol/vol) glycerol and 10% (vol/vol) OADC. The agar plates were incubated for 5 days at 37°C prior to counting of colonies. All studies were conducted in accordance with the GSK Policy on the Care, Welfare and Treatment of Laboratory Animals and were reviewed the Institutional Animal Care and Use Committee either at GSK or by the ethical review process at the institution where the work was performed. All experiments involving live animals were approved by the Institutional Animal Care and Use Committee of the Center for Discovery and Innovation, Hackensack Meridian Health.

[26] = tested on: nutrient-starved, nonreplicating M. abscessus Bamboo; assay: MBC determination under nutrient-starved conditions; type: cell-based, Mycobacterium abscessus; settings: Mycobacteroides abscessus, 48 h drug exposure
Protocol: The determination of drug bactericidal activity against nutrient-starved M. abscessus cultures was performed as previously described ([52]). […] Washed culture was then diluted with PBS/Tyloxapol to OD600 = 0.2 (1.8 × 10^7 CFU/ml). […] Appropriate concentrations of drugs up to 100 μM were added to the tubes prior to incubation at 37°C on a tilted rack in an orbital shaker at 220 rpm.

[27] = tested on: anaerobic, nonreplicating M. abscessus Bamboo; assay: MBC determination under anaerobic conditions; type: cell-based, Mycobacterium abscessus; settings: Mycobacteroides abscessus, 48 h drug exposure
[28] = Mycobacteroides abscessus, ATCC19977

Compound	MIC [1, 28]	MIC [2]	MBC (M. abscessus Bamboo [3]; Mycobacteroides abscessus, 0 h)	MIC (M. abscessus Bamboo [3]; Mycobacteroides abscessus)	MIC (M. avium 11)	MIC ([4]; ATCC19977)	MIC ([4]; ATCC19977, 72 h)	MIC [5]	MIC [6]	MIC [7]	MIC [8]	MIC [9]	MIC [10]	MIC [11, 28]	MIC [12]	MIC [13]	MIC [14]	MIC [15]	MIC [16]	MIC [17, 28]	also measured
COc1c(N2C[C@@H]3CCCN[C@@H]3C2)c(F)cc2c(=O)c(C(=O)O)cn(C3CC3)c12 [MXF, moxifloxacin]	> 50 µM	2.9 µM (≈ 1.16 µg/mL)	3.1 µM (≈ 1.24 µg/mL)	1.9 µM (≈ 0.763 µg/mL)	1.3 µM (≈ 0.522 µg/mL)	3.6 µM (≈ 1.45 µg/mL)	3.6 µM (≈ 1.45 µg/mL)	3.2 µM (≈ 1.28 µg/mL)	4.8 µM (≈ 1.93 µg/mL)	7.3 µM (≈ 2.93 µg/mL)	6.7 µM (≈ 2.69 µg/mL)	2.9 µM (≈ 1.16 µg/mL)	20 µM (≈ 8.03 µg/mL)	> 50 µM	27 µM (≈ 10.8 µg/mL)	0.6 µM (≈ 0.241 µg/mL)	7.1 µM (≈ 2.85 µg/mL)	8 µM (≈ 3.21 µg/mL)	5 µM (≈ 2.01 µg/mL)	> 50 µM	MIC [1]: 54 µM (≈ 21.7 µg/mL); MIC [11]: >100 µM; MIC [17]: 68 µM (≈ 27.3 µg/mL); MIC (M. abscessus Bamboo [18]): 5.4 µM (≈ 2.17 µg/mL); MIC (M. abscessus Bamboo [18]; 72 h): 4.6 µM (≈ 1.85 µg/mL); MIC [19]: 2.7 µM (≈ 1.08 µg/mL); MIC [20]: 42 µM (≈ 16.9 µg/mL); MIC [21]: 0.4 µM (≈ 0.161 µg/mL); MIC [22]: 6.3 µM (≈ 2.53 µg/mL); MIC [23]: 47 µM (≈ 18.9 µg/mL); MBC [24]: 25 µM (≈ 10 µg/mL); MIC [24]: 6 µM (≈ 2.41 µg/mL); reduction in lung CFU burden ([25]; 200 mg/kg oral once daily for 10 days, not statistically significant): 0.6 log
CC[C@H]1OC(=O)[C@H](C)[C@@H](O[C@H]2C[C@@](C)(OC)[C@@H](O)[C@H](C)O2)[C@H](C)[C@@H](O[C@@H]2O[C@H](C)C[C@H](N(C)C)[C@H]2O)[C@](C)(OC)C[C@@H](C)C(=O)[C@H](C)[C@@H](O)[C@]1(C)O [CLR, clarithromycin]	0.34 µM (≈ 0.254 µg/mL)	0.73 µM (≈ 0.546 µg/mL)	> 100 µM	0.28 µM (≈ 0.209 µg/mL)	0.3 µM (≈ 0.224 µg/mL)	1.2 µM (≈ 0.898 µg/mL)	0.9 µM (≈ 0.673 µg/mL)	0.95 µM (≈ 0.711 µg/mL)	2.7 µM (≈ 2.02 µg/mL)	0.4 µM (≈ 0.299 µg/mL)	0.24 µM (≈ 0.18 µg/mL)	0.9 µM (≈ 0.673 µg/mL)	0.24 µM (≈ 0.18 µg/mL)	1.5 µM (≈ 1.12 µg/mL)	0.26 µM (≈ 0.194 µg/mL)	–	0.28 µM (≈ 0.209 µg/mL)	0.19 µM (≈ 0.142 µg/mL)	0.2 µM (≈ 0.15 µg/mL)	0.73 µM (≈ 0.546 µg/mL)	MBC (M. abscessus Bamboo [3]): >100 µM; MBC [26]: > 100 µM; MIC (M. abscessus Bamboo [18]): 0.33 µM (≈ 0.247 µg/mL); MIC (M. abscessus Bamboo [18]; 72 h): 0.23 µM (≈ 0.172 µg/mL); MIC [19]: 0.65 µM (≈ 0.486 µg/mL); MIC [20]: 0.29 µM (≈ 0.217 µg/mL); MIC [21]: 0.15 µM (≈ 0.112 µg/mL); MIC [22]: 2.5 µM (≈ 1.87 µg/mL); MIC [23]: 0.27 µM (≈ 0.202 µg/mL); MBC [27]: > 100 µM; MBC [24]: > 100 µM; MIC [24]: 1.6 µM (≈ 1.2 µg/mL); reduction in lung CFU ([25]; 250 mg/kg oral once daily for 10 days, EC/11716 reduction stated on par with it): ~1 log
CO[C@H]1/C=C/O[C@@]2(C)Oc3c(C)c(O)c4c(O)c(c(/C=N/N5CCN(C)CC5)c(O)c4c3C2=O)NC(=O)/C(C)=C\C=C\[C@H](C)[C@H](O)[C@@H](C)[C@@H](O)[C@@H](C)[C@H](OC(C)=O)[C@@H]1C [rifampin]	–	–	–	–	–	–	–	–	–	–	–	–	–	–	–	0.66 µM (≈ 0.543 µg/mL)	–	–	–	–	–
